Experimental data from ChEMBL document CHEMBL1201862, “PubChem BioAssay data set” (2004).
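Protocol summary: plate cells (96-well), add compound at 5 concentrations, incubate 48 h, interpolate endpoints linearly. Here, GI50 denotes the concentration required for 50% inhibition of growth.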 Calls of active or inactive are those of the source. Cut-off read from the data, not from the text of the source: active = GI50 up to about 1.1 µM and inactive = higher.

Experiments:
Test in all cases: inhibition of tumour cell growth, NCI panel, 48 h
A549 = test system: A549
COLO 205 = test system: COLO 205
EKVX = test system: EKVX
HCT-15 = test system: HCT-15
HOP-62 = test system: HOP-62
KM12 = test system: KM12
MCF7 = test system: MCF7
NCI-H460 = test system: NCI-H460
NCI-H522 = test system: NCI-H522
OVCAR-5 = test system: OVCAR-5
RXF 393 = test system: RXF 393
SF-295 = test system: SF-295
SF-539 = test system: SF-539
SK-MEL-5 = test system: SK-MEL-5
SN12C = test system: SN12C
SNB-19 = test system: SNB-19
SNB-75 = test system: SNB-75
UACC-257 = test system: UACC-257
Malme-3M = test system: Malme-3M
OVCAR-4 = test system: OVCAR-4

| Structure (SMILES) | GI50 (A549) | GI50 (COLO 205) | GI50 (EKVX) | GI50 (HCT-15) | GI50 (HOP-62) | GI50 (KM12) | GI50 (MCF7) | GI50 (NCI-H460) | GI50 (NCI-H522) | GI50 (OVCAR-5) | GI50 (RXF 393) | GI50 (SF-295) | GI50 (SF-539) | GI50 (SK-MEL-5) | GI50 (SN12C) | GI50 (SNB-19) | GI50 (SNB-75) | GI50 (UACC-257) | GI50 (Malme-3M) | GI50 (OVCAR-4) |
| --- | --- | --- | --- | --- | --- | --- | --- | --- | --- | --- | --- | --- | --- | --- | --- | --- | --- | --- | --- | --- |
| O=C1C(Cl)=C(N2C(=O)CCCC2=O)C(=O)c2ccccc21 | 22.1 µM (inactive) | 6.37 µM (inactive) | 16.3 µM (inactive) | 11.6 µM | > 100 µM (inactive) | 62.1 µM (inactive) | 16.8 µM (inactive) | 14.6 µM (inactive) | 1.84 µM (inactive) | 18 µM (inactive) | 15.7 µM (inactive) | 82.2 µM (inactive) | 18.5 µM (inactive) | 16.6 µM (inactive) | 21.2 µM (inactive) | > 10 µM (inactive) | 16.4 µM (inactive) | 19.1 µM (inactive) | – | – |
| CC1(c2cccc(Cl)c2)CC(c2cccc(Cl)c2)=C(C#N)C(=C(C#N)C#N)N1 (stereo not drawn) | 19.5 µM (inactive) | 13.2 µM (inactive) | 22.1 µM (inactive) | 16 µM | 19.4 µM (inactive) | 18 µM (inactive) | 20.6 µM (inactive) | 27.6 µM (inactive) | – | 24.2 µM (inactive) | 14.8 µM (inactive) | 16 µM (inactive) | 19.1 µM (inactive) | 14.6 µM (inactive) | 19.4 µM (inactive) | 17.9 µM (inactive) | 19.1 µM (inactive) | 20.1 µM (inactive) | 17.1 µM (inactive) | 14.2 µM (inactive) |
| O=CNNC(=O)CSc1nc2ccc(I)cc2c(=O)n1Cc1ccccc1 | 37.4 µM (inactive) | 17.9 µM (inactive) | 23.9 µM (inactive) | 40.7 µM | 37.1 µM (inactive) | 33.4 µM (inactive) | 37.2 µM (inactive) | 20 µM (inactive) | 20.9 µM (inactive) | 61.8 µM (inactive) | 29.1 µM (inactive) | 40.6 µM (inactive) | 34.6 µM (inactive) | 18.6 µM (inactive) | 28.4 µM (inactive) | 46.6 µM (inactive) | 45 µM (inactive) | 22.9 µM (inactive) | – | 40.4 µM (inactive) |
| C[N+](C)(CCNC(=O)c1cccc2cc3ccccc3nc12)Cc1ccc([N+](=O)[O-])s1 | > 25 µM (inactive) | > 25 µM (inactive) | > 25 µM (inactive) | > 25 µM | > 25 µM (inactive) | > 25 µM (inactive) | > 25 µM (inactive) | – | > 25 µM (inactive) | > 25 µM (inactive) | > 25 µM (inactive) | > 25 µM (inactive) | – | > 25 µM (inactive) | > 25 µM (inactive) | – | > 25 µM (inactive) | > 25 µM (inactive) | > 25 µM (inactive) | – |
| O=C1c2ccccc2C(=O)N1CCSCC(CO)SCCN1C(=O)c2ccccc2C1=O (stereo not drawn) | > 100 µM (inactive) | > 100 µM (inactive) | 91 µM (inactive) | > 100 µM | > 100 µM (inactive) | > 100 µM (inactive) | > 100 µM (inactive) | > 100 µM (inactive) | 62.5 µM (inactive) | > 100 µM (inactive) | > 100 µM (inactive) | > 100 µM (inactive) | – | > 100 µM (inactive) | > 100 µM (inactive) | > 100 µM (inactive) | – | > 100 µM (inactive) | > 100 µM (inactive) | 48.6 µM (inactive) |
| O=C1NCC2(CCNCC2)N1 | > 100 µM (inactive) | > 100 µM (inactive) | > 100 µM (inactive) | > 100 µM | > 100 µM (inactive) | > 100 µM (inactive) | > 100 µM (inactive) | > 100 µM (inactive) | – | > 100 µM (inactive) | > 100 µM (inactive) | > 100 µM (inactive) | > 100 µM (inactive) | > 100 µM (inactive) | > 100 µM (inactive) | > 100 µM (inactive) | > 100 µM (inactive) | > 100 µM (inactive) | > 100 µM (inactive) | > 100 µM (inactive) |
| COc1ccc2[nH]cc(CCNC(=O)[C@H](Cc3ccccc3)NC(=O)[C@@H](NCC(F)(F)F)C(C)C)c2c1 | 27 µM (inactive) | 17.9 µM (inactive) | 17.4 µM (inactive) | 21.4 µM | 14.8 µM (inactive) | 18.5 µM (inactive) | 17.9 µM (inactive) | 20.1 µM (inactive) | 16.7 µM (inactive) | 18.3 µM (inactive) | 15.6 µM (inactive) | 11.2 µM (inactive) | 19 µM (inactive) | – | 24.5 µM (inactive) | 28.6 µM (inactive) | – | 19.7 µM (inactive) | 21.6 µM (inactive) | 16.3 µM (inactive) |
| COc1ccc(NC(C)=O)c(C(=O)CCNC(C)=O)c1 | > 100 µM (inactive) | > 100 µM (inactive) | > 100 µM (inactive) | > 100 µM | – | > 100 µM (inactive) | > 100 µM (inactive) | > 100 µM (inactive) | > 100 µM (inactive) | > 100 µM (inactive) | > 100 µM (inactive) | > 100 µM (inactive) | > 100 µM (inactive) | > 100 µM (inactive) | > 100 µM (inactive) | > 100 µM (inactive) | > 100 µM (inactive) | > 100 µM (inactive) | – | > 100 µM (inactive) |
| N#Cc1nc(CCCN2C(=O)c3ccccc3C2=O)oc1N | > 100 µM (inactive) | > 100 µM (inactive) | > 100 µM (inactive) | > 100 µM | > 100 µM (inactive) | – | > 100 µM (inactive) | > 100 µM (inactive) | > 100 µM (inactive) | > 100 µM (inactive) | > 100 µM (inactive) | > 100 µM (inactive) | > 100 µM (inactive) | > 100 µM (inactive) | > 100 µM (inactive) | > 100 µM (inactive) | – | > 100 µM (inactive) | > 100 µM (inactive) | > 100 µM (inactive) |
| COc1ccc2oc(=O)c(-c3cc4c(c(C)n3)c(=O)oc3ccc(OC)cc34)cc2c1 | > 100 µM (inactive) | > 100 µM (inactive) | > 100 µM (inactive) | > 100 µM | 30.4 µM (inactive) | > 100 µM (inactive) | > 100 µM (inactive) | > 100 µM (inactive) | > 100 µM (inactive) | – | > 100 µM (inactive) | 95.7 µM (inactive) | 93.5 µM (inactive) | > 100 µM (inactive) | > 100 µM (inactive) | 25.5 µM (inactive) | > 100 µM (inactive) | > 100 µM (inactive) | – | – |
| O=C(C[n+]1ccccc1)N/N=C(\C(=O)NC1=C(Cl)C(=O)c2ccccc2C1=O)c1c(O)c2ccc(O)cc2oc1=O | 3.03 µM (inactive) | 3.05 µM (inactive) | 12.9 µM (inactive) | 2.42 µM | 10.4 µM (inactive) | 4.85 µM (inactive) | 3.48 µM (inactive) | 2.52 µM (inactive) | 2.07 µM (inactive) | 12.3 µM (inactive) | 9.35 µM (inactive) | 3.05 µM (inactive) | 4.28 µM (inactive) | 1.06 µM (active) | 4.44 µM (inactive) | – | 6.5 µM (inactive) | 3.03 µM (inactive) | – | 3.08 µM (inactive) |
